Reference: the OPERA property sets (Mansouri et al. 2018)

Details: not given

Point of comparison: `OC(CCCN1CCCCC1)(c1ccccc1)c1ccccc1`, melting point 104 °C. Against it:
- CCOc1ccc(N=Nc2ccc(OCC)cc2)cc1 — higher, 162 °C
- NCCS — lower, 98 °C
- NC(=O)C(Cl)(Cl)Cl — higher, 142 °C
- C=CC(C)(C)C(=O)O — lower, -6 °C
- Cc1nn(C)c(Oc2ccccc2)c1C=NOCc1ccc(C(=O)OC(C)(C)C)cc1 — lower, 102 °C
- O=C(CCl)N1CCOCC1 — lower, 37 °C
- CS(=O)(=O)OCCCNCCCOS(C)(=O)=O — higher, 116 °C
- CCc1c(C)cccc1C — lower, -16.2 °C
- O=C(O)c1ccccc1C1c2ccc(O)cc2Oc2cc(O)ccc21 — higher, 126 °C
- O=[N+]([O-])c1ccsc1 — lower, 78.5 °C
- O=[N+]([O-])c1ccccc1SSc1ccccc1[N+](=O)[O-] — higher, 196 °C
- CCCCN(CC)c1c([N+](=O)[O-])cc(C(F)(F)F)cc1[N+](=O)[O-] — lower, 66 °C
- COc1ccc(N)c(OC)c1 — lower, 33.5 °C
- CCCCCC(N)=O — lower, 101 °C
- C=C[C@H]1C[N@@]2CC[C@H]1C[C@H]2[C@H](O)c1ccnc2ccc(O)cc12 — higher, 202 °C
- FC(F)(F)C(Cl)Br (stereo unspecified) — lower, -118 °C
- O=C(O)Cc1c(Cl)ccc(Cl)c1Cl — higher, 161 °C
- C[C@H](CCC(=O)O)[C@H]1CC[C@H]2[C@@H]3CC[C@@H]4C[C@H](O)CC[C@]4(C)[C@H]3C[C@H](O)[C@]12C — higher, 177 °C
- BrCc1ccccc1Br — lower, 31 °C
- NS(=O)(=O)c1ccc(N2C(=O)CC(c3ccccc3)C2=O)c(Cl)c1 (stereo unspecified) — higher, 206 °C
- Cc1ccc2cccc([N+](=O)[O-])c2n1 — higher, 140 °C
- CC(O)CO (stereo unspecified) — lower, -60 °C
- NC(=O)c1c(F)c(F)c(F)c(F)c1F — higher, 147 °C
- Cc1ccccc1C — lower, -25.2 °C
- Nc1ccc(Br)cc1C(=O)O — higher, 220 °C
- COBOC — lower, -131 °C
- ClC(Cl)(Br)CBr — lower, -26 °C
- COC(=O)Nc1nc2ccc(C(=O)c3ccc(F)cc3)cc2[nH]1 — higher, 260 °C
- Nc1ccc(Cl)cc1C(=O)c1ccccc1 — lower, 99 °C
- CCCCCCCCCCCCCCCCCC(=O)CCCCCCCCCCCCCCCCC — lower, 89 °C
- CC(C)(F)F — lower, -105 °C
- COc1ccc2[nH]cc(CCN(C)C)c2c1 — lower, 69.5 °C
- C=C(C)CCC=C(C)C — lower, -70 °C
- Cc1cccc(C(=O)O)c1O — higher, 166 °C
- CCOC(C(=O)c1ccccc1)c1ccccc1 (stereo unspecified) — lower, 62 °C
- CCc1c(C)[nH]c2c1C(=O)C(CN1CCOCC1)CC2 (stereo unspecified) — higher, 180 °C
- C=C(C)C(C)(C)CC — lower, -69 °C
- Cc1ccccn1 — lower, -66.7 °C
- CS(=O)(=O)c1ccc2c(c1)N(CCCN1CCC(C(N)=O)CC1)c1ccccc1S2 — higher, 170 °C
- Oc1ccc(Cl)cc1 — lower, 42.7 °C
- CC(C)(OO)c1ccccc1 — lower, -9 °C
- FC(F)(F)c1nc2ccccc2[nH]1 — higher, 210 °C

Point of comparison: `CC(C)(F)F`, boiling point -0.4 °C. Against it:
- FC(F)(F)COCC(F)(F)F — higher, 63.9 °C
- NC(=O)C(Cl)(Cl)Cl — higher, 240 °C
- C=CC(C)(C)C(=O)O — higher, 185 °C
- CCCCO[N+](=O)[O-] — higher, 133 °C
- CCc1c(C)cccc1C — higher, 190 °C
- O=[N+]([O-])c1ccsc1 — higher, 225 °C
- CCCCN(CC)c1c([N+](=O)[O-])cc(C(F)(F)F)cc1[N+](=O)[O-] — higher, 370 °C
- CCCCCC(N)=O — higher, 255 °C
- FC(F)(F)C(Cl)Br (stereo unspecified) — higher, 50.2 °C
- O=S(=O)(O)C(F)(F)C(F)(F)C(F)(F)C(F)(F)F — higher, 211 °C
- CCOC(=O)C(C)O (stereo unspecified) — higher, 154 °C
- CCOC(=O)CC(=O)CC — higher, 191 °C
- CC(O)CO (stereo unspecified) — higher, 188 °C
- Cc1ccccc1C — higher, 144 °C
- COBOC — higher, 25.9 °C
- ClC(Cl)(Br)CBr — higher, 195 °C
- C=CCCCO — higher, 141 °C
- C=C(C)CCC=C(C)C — higher, 143 °C
- COc1cccc(Cl)n1 — higher, 186 °C
- C=C(C)C(C)(C)CC — higher, 108 °C
- CCCC(C)C=O (stereo unspecified) — higher, 117 °C
- Cc1ccccn1 — higher, 129 °C
- Oc1ccc(Cl)cc1 — higher, 220 °C

Point of comparison: `CCCCOCCOC(=O)COc1ccc(Cl)cc1Cl`, log10 vapour pressure (mmHg) -5.35. Against it:
- FC(F)(F)COCC(F)(F)F — higher, 2.19
- CCCCO[N+](=O)[O-] — higher, 0.919
- CCc1c(C)cccc1C — higher, -0.132
- CCCCN(CC)c1c([N+](=O)[O-])cc(C(F)(F)F)cc1[N+](=O)[O-] — higher, -4.19
- FC(F)(F)C(Cl)Br (stereo unspecified) — higher, 2.48
- Clc1ccccc1Oc1ccccc1 — higher, -2.4
- CCOC(=O)C(C)O (stereo unspecified) — higher, 0.574
- CC(O)CO (stereo unspecified) — higher, -0.889
- Cc1ccccc1C — higher, 0.82
- ClC(Cl)(Br)CBr — higher, -0.0458
- C=C(C)C(C)(C)CC — higher, 1.48
- Cc1ccccn1 — higher, 1.05
- Oc1ccc(Cl)cc1 — higher, -1.05
- CC(C)(OO)c1ccccc1 — higher, -2.49

Point of comparison: `CC(O)CO` (stereo unspecified), log10 Koc (L/kg) 0.36. Against it:
- NC(=O)C(Cl)(Cl)Cl — higher, 0.99
- CCCCN(CC)c1c([N+](=O)[O-])cc(C(F)(F)F)cc1[N+](=O)[O-] — higher, 4.03
- O=C(O)Cc1c(Cl)ccc(Cl)c1Cl — higher, 1.8
- Cc1ccccc1C — higher, 2.25

Point of comparison: `Cc1ccccn1`, log10 Henry constant (atm·m³/mol) -5. Against it:
- CCCCO[N+](=O)[O-] — higher, -2.81
- FC(F)(F)C(Cl)Br (stereo unspecified) — higher, -1.69
- Cc1ccccc1C — higher, -2.29

In the case of `CCCCN(CC)c1c([N+](=O)[O-])cc(C(F)(F)F)cc1[N+](=O)[O-]`, the ready biodegradability was “not readily biodegradable”.
In the case of `CC(O)CO` (stereo unspecified), the ready biodegradability was “readily biodegradable”.
For `Cc1ccccc1C`, the ready biodegradability was “readily biodegradable”.
In the case of `Cc1cccc(C(=O)O)c1O`, the ready biodegradability was “not readily biodegradable”.
With `Cc1ccccn1` the ready biodegradability was “readily biodegradable”.
In the case of `Oc1ccc(Cl)cc1`, the ready biodegradability was “not readily biodegradable”.
In the case of `CC(C)(OO)c1ccccc1`, the ready biodegradability was “not readily biodegradable”.

For `Cc1ccccc1C`, the log10 Koa was 3.91.

In the case of `Cc1ccccc1C`, the log10 biodegradation half-life (days) was 0.778.

Same assay, conditions: fish

Point of comparison: `BrC(Br)C(Br)Br`, log10 BCF 0.74. Against it:
- Nc1ccc2c(O)cc(S(=O)(=O)O)cc2c1 — lower, 0.38
- Nc1c(Cl)c(Cl)c(Cl)c(Cl)c1Cl — higher, 2.71
- CCOP(=S)(OCC)Oc1nc(Cl)c(Cl)cc1Cl — higher, 3.18
- CN(C)Cc1ccccc1 — higher, 1.15
- Cc1ccccc1C — higher, 1.15
- COP(=O)(OC)Oc1ccc([N+](=O)[O-])c(C)c1 — lower, 0.44
- Oc1ccc(Cl)cc1 — higher, 1.48

Point of comparison: `Oc1ccc(Cl)cc1`, log10 biotransformation half-life (days) -0.41. Against it:
- CCOP(=S)(OCC)Oc1nc(Cl)c(Cl)cc1Cl — higher, 0.77
- COP(=O)(OC)Oc1ccc([N+](=O)[O-])c(C)c1 — higher, 0.01
